Converted amounts (≈) assume the structure as drawn. Where two headings read alike, the source gives them in different places. One block for each compound: values may come before it.
Experiments:
[1] = MTT cell viability / cytotoxicity on normal fibroblasts; assay type: cell-based, mouse; conditions: mouse, NCTC clone 929 (L929) mouse fibroblast cells
Description: Merck chemicals were utilized.
Untreated cells were used as control, considered 100% viable cells.

[2] = tested on: Enterococcus faecalis ATCC29212; experiment: Qualitative evaluation of antimicrobial activity (inhibition zone, spot on agar); assay type: cell-based; parameters: key: (+) inhibited bacterial growth; (-) did not inhibit bacterial growth; conditions: 0.06 g/2 mL DMSO, 5 µL spot
Description: (§1) For testing the antimicrobial/antibiofilm activity, the concentration of the studied compounds was identical to 0.06 g/2 mL DMSO. 0.5 Standard McFarland suspension was used, which was inoculated onto Mueller Hinton agar plates, (Remel, Lenexa, KS, USA), 5 µL of each compound was spotted and incubated overnight at 37 °C. Antimicrobial activity was observed as zones of inhibition formed around the spot.

[3] = tested on: Escherichia coli ATCC25922; experiment: as above; assay type: cell-based; parameters: key: (+) inhibited bacterial growth; (-) did not inhibit bacterial growth; conditions: 0.06 g/2 mL DMSO, 5 µL spot
Description: as §1

[4] = tested on: Pseudomonas aeruginosa ATCC27853; experiment: as above; assay type: cell-based; parameters: key: (+) inhibited bacterial growth; (-) did not inhibit bacterial growth; conditions: 0.06 g/2 mL DMSO, 5 µL spot
Description: as §1

[5] = tested on: Staphylococcus aureus ATCC25923; experiment: as above; assay type: cell-based; parameters: key: (+) inhibited bacterial growth; (-) did not inhibit bacterial growth; conditions: 0.06 g/2 mL DMSO, 5 µL spot
Description: as §1

[6] = tested on: Enterococcus faecalis ATCC29212; experiment: MIC by serial microdilution in liquid medium; assay type: cell-based; conditions: Enterococcus faecalis, ATCC29212; 24 h, 37 °C; read-out: Minimum inhibitory concentration, Enterococcus faecalis ATCC29212
Description: (§2) The minimum inhibitory concentrations (MIC) were determined by the serial microdilution method in a liquid medium (Tryptone Soy Broth), on 96-well plates. Serial binary dilutions of the compound stock solution (10 mg/mL in DMSO) were carried out in 90 µL of culture medium and 10 µL of 10^6 CFU/mL (Colony Forming Units) microbial suspension. Each test included a positive control (wells with culture medium and microbial suspension) and a negative control for medium sterility. After incubation at 37 °C for 24 h the plates were visually examined, and optical density was measured at 620 nm. […] The MIC value (µg/mL) for the chemical compound was determined by the concentration in the final well without bacterial growth. All experiments were performed in triplicate.

[7] = tested on: Escherichia coli ATCC25922; experiment: MIC by serial microdilution in liquid medium; assay type: cell-based; conditions: 24 h, 37 °C; for MIC: Escherichia coli, ATCC25922, read-out: Minimum inhibitory concentration, Escherichia coli ATCC25922
Description: as §2

[8] = tested on: Pseudomonas aeruginosa ATCC27853; experiment: MIC by serial microdilution in liquid medium; assay type: cell-based; conditions: Pseudomonas aeruginosa, ATCC27853; 24 h, 37 °C; read-out: Minimum inhibitory concentration, Pseudomonas aeruginosa ATCC27853
Description: as §2

[9] = tested on: Staphylococcus aureus ATCC25923; experiment: MIC by serial microdilution in liquid medium; assay type: cell-based; conditions: 24 h, 37 °C; for MIC: Staphylococcus aureus, ATCC25923, read-out: Minimum inhibitory concentration, Staphylococcus aureus ATCC25923
Description: as §2

[10] = tested on: Enterococcus faecalis ATCC29212; experiment: Antibiofilm assay (crystal violet), MBIC; assay type: cell-based; conditions: Enterococcus faecalis, ATCC29212, 24 h, 37 °C, read-out: Minimum biofilm inhibition concentration (MBIC), Enterococcus faecalis ATCC29212
Description: (§3) Microorganisms were grown in 96-well plates filled with nutrient broth along with test substances, followed by incubation at 37 °C for 24 h. Plates were cleaned and rinsed thrice using SPW solution (sterile physiological water). After that, the attached cells were treated with 110 μL of methanol for 5 min, and then the methanol was removed by turning it upside down. […] Once stained, the solution was removed, and the plates were washed with running tap water. […] The antimicrobial/antibiofilm activity of the compounds was evaluated against two antibiotics, commercial formulations of metronidazole and nitrofurantoin.

[11] = tested on: Escherichia coli ATCC25922; experiment: Antibiofilm assay (crystal violet), MBIC; assay type: cell-based; conditions: Escherichia coli, ATCC25922, 24 h, 37 °C, read-out: Minimum biofilm inhibition concentration (MBIC), Escherichia coli ATCC25922
Description: as §3

[12] = tested on: Pseudomonas aeruginosa ATCC27853; experiment: Antibiofilm assay (crystal violet), MBIC; assay type: cell-based; conditions: Pseudomonas aeruginosa, ATCC27853, 24 h, 37 °C, read-out: Minimum biofilm inhibition concentration (MBIC), Pseudomonas aeruginosa ATCC27853
Description: as §3

[13] = tested on: Staphylococcus aureus ATCC25923; experiment: Antibiofilm assay (crystal violet), MBIC; assay type: cell-based; conditions: 24 h, 37 °C; for minimal effective concentration: Staphylococcus aureus, ATCC25923, read-out: Minimum biofilm inhibition concentration (MBIC), Staphylococcus aureus ATCC25923
Description: as §3

[14] = tested on: HEp-2 epithelial tumor cells; experiment: MTT cell viability / anti-tumor activity; conditions: Homo sapiens, read-out: Cell viability on Hep2 cells (%)

- MIC [6]: 930 ± 0.03 µg/mL (≈ 2860 µM)
- MIC [7]: 930 ± 1.05 µg/mL (≈ 2860 µM)
- MIC [8]: 930 ± 1.08 µg/mL (≈ 2860 µM)
- MIC [9]: 930 ± 0.04 µg/mL (≈ 2860 µM)
- melting point: 118 to 120 °C
SMILES: Cc1nn(CNc2ccc(Br)cc2)c(C)c1[N+](=O)[O-] [4c, N-[(3,5-dimetyl-4-nitro-1H-pyrazol-1-yl)-methyl]-4-bromoaniline]
- viability at 24 h, 3.1 µg/mL [1]: 99.2 ± 0.97%
- viability at 48 h, 3.1 µg/mL [1]: 99.67 ± 0.71%
- viability at 24 h, 6.25 µg/mL [1]: 97.1 ± 3.04%
- viability at 48 h, 6.25 µg/mL [1]: 98.8 ± 1.92%
- viability at 24 h, 12.5 µg/mL [1]: 95.6 ± 0.62%
- viability at 48 h, 12.5 µg/mL [1]: 97.2 ± 3.5%
- viability at 24 h, 25 µg/mL [1]: 95.5 ± 2.14%
- viability at 48 h, 25 µg/mL [1]: 95.6 ± 2.93%
- viability at 24 h, 50 µg/mL [1]: 91.1 ± 3.04%
- viability at 48 h, 50 µg/mL [1]: 81.5 ± 3.26%
- Qualitative antimicrobial activity, Enterococcus faecalis ATCC29212 [2]: -
- Qualitative antimicrobial activity, Escherichia coli ATCC25922 [3]: -
- Qualitative antimicrobial activity, Pseudomonas aeruginosa ATCC27853 [4]: -
- Qualitative antimicrobial activity, Staphylococcus aureus ATCC25923 [5]: -
- minimal effective concentration [10]: 930 ± 1.09 µg/mL
- minimal effective concentration [11]: 930 ± 0.11 µg/mL
- minimal effective concentration [12]: 930 ± 0.52 µg/mL
- minimal effective concentration [13]: 930 ± 0.06 µg/mL
- viability at 3.1 µg/mL ([14]; HEp-2, 24 h): 101 ± 2.04%
- viability at 6.25 µg/mL ([14]; HEp-2, 24 h): 103 ± 2.31%
- viability at 12.5 µg/mL ([14]; HEp-2, 24 h): 100 ± 3.15%
- viability at 25 µg/mL ([14]; HEp-2, 24 h): 98.7 ± 1.83%
- viability at 50 µg/mL ([14]; HEp-2, 24 h): 92.64 ± 0.9%
- viability at 3.1 µg/mL ([14]; HEp-2, 48 h): 116 ± 2.55%
- viability at 6.25 µg/mL ([14]; HEp-2, 48 h): 104.2 ± 0.88%
- viability at 12.5 µg/mL ([14]; HEp-2, 48 h): 99.6 ± 2.32%
- viability at 25 µg/mL ([14]; HEp-2, 48 h): 82.6 ± 3.28%
- viability at 50 µg/mL ([14]; HEp-2, 48 h): 70.2 ± 1.91%

- MIC [6]: 930 ± 0.02 µg/mL (≈ 3310 µM)
- MIC [7]: 460 µg/mL (≈ 1640 µM)
- MIC [8]: 930 ± 0.53 µg/mL (≈ 3310 µM)
- MIC [9]: 460 µg/mL (≈ 1640 µM)
- melting point: 110 to 111 °C
SMILES: Cc1nn(CNc2cccc(Cl)c2)c(C)c1[N+](=O)[O-] [4e, N-[(3,5-dimetyl-4-nitro-1H-pyrazol-1-yl)-methyl]-3-chloroaniline]
- viability at 24 h, 3.1 µg/mL [1]: 93.1 ± 2.76%
- viability at 48 h, 3.1 µg/mL [1]: 89.5 ± 2.24%
- viability at 24 h, 6.25 µg/mL [1]: 94.3 ± 2.92%
- viability at 48 h, 6.25 µg/mL [1]: 98.3 ± 2.03%
- viability at 24 h, 12.5 µg/mL [1]: 97.8 ± 0.99%
- viability at 48 h, 12.5 µg/mL [1]: 93.2 ± 2.94%
- viability at 24 h, 25 µg/mL [1]: 95.6 ± 2.19%
- viability at 48 h, 25 µg/mL [1]: 92.2 ± 0.89%
- viability at 24 h, 50 µg/mL [1]: 63.5 ± 3.18%
- viability at 48 h, 50 µg/mL [1]: 63.2 ± 2.56%
- Qualitative antimicrobial activity, Enterococcus faecalis ATCC29212 [2]: -
- Qualitative antimicrobial activity, Escherichia coli ATCC25922 [3]: +
- Qualitative antimicrobial activity, Pseudomonas aeruginosa ATCC27853 [4]: +
- Qualitative antimicrobial activity, Staphylococcus aureus ATCC25923 [5]: +
- Minimum inhibitory concentration, Escherichia coli ATCC25922 [7]: 460 ± 0.52 µg/mL (≈ 1640 µM)
- Minimum inhibitory concentration, Staphylococcus aureus ATCC25923 [9]: 460 ± 0.03 µg/mL (≈ 1640 µM)
- Minimum biofilm inhibition concentration (MBIC), Staphylococcus aureus ATCC25923 [13]: 460 ± 0.04 µg/mL
- minimal effective concentration [13]: 460 µg/mL
- viability at 3.1 µg/mL ([14]; HEp-2, 24 h): 106.5 ± 0.73%
- viability at 6.25 µg/mL ([14]; HEp-2, 24 h): 103.7 ± 0.28%
- viability at 12.5 µg/mL ([14]; HEp-2, 24 h): 99.7 ± 0.32%
- viability at 25 µg/mL ([14]; HEp-2, 24 h): 89.15 ± 0.88%
- viability at 50 µg/mL ([14]; HEp-2, 24 h): 56.46 ± 0.42%
- viability at 3.1 µg/mL ([14]; HEp-2, 48 h): 98.1 ± 2.88%
- viability at 6.25 µg/mL ([14]; HEp-2, 48 h): 97.1 ± 1.78%
- viability at 12.5 µg/mL ([14]; HEp-2, 48 h): 94.8 ± 2.84%
- viability at 25 µg/mL ([14]; HEp-2, 48 h): 81.7 ± 2.38%
- viability at 50 µg/mL ([14]; HEp-2, 48 h): 54.9 ± 2.76%
